Experimental data: patent publication US6376666B1 (Nauchno-Issledovatelsky Institut Farmakologii Rossiiskoi …, priority 1994, dated 2002)

Tests used:
Format in all cases: in vivo
[1] = test system: outbred male rats; assay: conflict Vogel test (punished licking of water); settings: M ± mx
Experimental: The study of anxiolytic activity of chosen compounds was carried out in the experiments with outbred male rats weighing 180-200 g in standard conflict Vogel' procedure [Voronina T. A. et al., in: “Phenazepam”, Naukova Dumka, Kiev, 1982, p.89, 93, 146]. The main aim of the initial step of experiments was the training of rats to develop the feeling of thirst with following experience of water licking from bottle in the experimental chamber. The animals were deprived of water for 24 hours and were placed in the test chamber for 5-min adaptation period during which they had free access to the drinking bottle. After another 24 h deprivation period the rats were placed again in the test chamber and were allowed to drink water for 5 sec. Immediately afterwards drinking attempts were punished by electric shock (0,5 mA). Under this collision of drinking and protective reflexes the extremal situation was developed. In this situation the anxiety of punishment prevented the licking process. The number of shocks received throughout a 5-min experimental session was recorded.

[2] = test system: outbred male mice; assay: rotarod test (myorelaxant activity); settings: cut-off 120 sec
Experimental: The myorelaxant activity of choosen compounds were studied in the outbred male mice weighing 22-25 g in rotarod test [Voronina T. A. et al., in: “Phenazepam”, Naukova Dumka, Kiev, 1982, p.145]. The animals were placed on the horizontal rotarod (D=2 cm) calibrated for a fixed speed of 4 rpm. According to the rotarod experimental protocol, normal motor coordination was defined by the ability of the animals to remain on the rotarod for an arbitrarily selected time of 120 sec.

[3] = test system: male outbred mice; assay: potentiation of sleep induced by sodium thiopental
Experimental: The possible hypnotic effects of choosen drugs was estimated according to method of potentiation of sleep induced by sodium thiopental. The male outbred mice weighing 20-25 g were injected i.p. with sodium thiopental at dose of 70 mg/kg. Two parameters were estimated: latent time of sleeping and duration of sleep. The used compounds were administered i.p. 30 min prior injection of sodium thiopental.

[4] = test system: Balb/c mice; assay: open-field test, Balb/c mice (passive type of emotional-stress reaction); design: key to Total activity: sum of all locomotor activity counts (crossings + rearings) in 3 min; settings: for Central activity (crossings) / Number of defecations / Peripheral activity (crossings) / Total activity / Vertical activity (rearings): M ± mx; for effect on the behavior (locomotor activity) of Balb/c mice in open-field test, in words: i.p., screening
From the text: (§1) The main point of this approach consists in comparative analysis of the behavioural effects of tested compounds in two inbred strains of mice Balb/c and C57B1/6 with different hereditary types of emotional-stress reactions (ESR). The anxiolytic effect was estimated as the activation of the locomotor activity of animals with “passive” type of ESR (Balb/c mice). The main index describing the sedative properties of tested drugs was the inhibition of the locomotor activity of mice with “active” type of ESR (C57B1/6 strain). The anxioselectivity was evaluated according to coincidence of doses range which activated or inhibited the behavior of mice of different strains. Earlier this approach has been successfully used for estimation of anxioselective activity of such known drugs as phenazepam [Seredenin S. B. et al., Bull.Exp.Biol.Med., 1979, v.88, N7, p.38; Seredenin S. B. et al., Ann.Inst.Super.Sanita, 1990, v.26, N1, p.81-88], mexidol [Seredenin S. B. et al., Khimiko-Farmatsevt.Zhurnal, 1987, N2, p.134; Vironina T. A., Seredenin S. B., Ann.Inst.Super.Sanita, 1988, v.24, N3, p.461-466] and gidazepam [Seredenin S. B. et al., in: “Gidazepam” Kiev, Naukova Dumka, 1992, p.92; Seredenin S. B., Blednov Yu. A., Phys.Chem.Biol.Med., 1993, v.1, N1, p.53-60].
(§2) Male C57B1/6 and Balb/c mice (“Stolbovaya” animal farm), weighing 20-22 g were used. The animals were housed in a separate animal room in groups of ten and maintained on 12 h light-dark cycle (light from 8.00 till 20.00) with free access to standard food and water during two weeks before experiment. Testing was performed between 9.00 and 13.00. Every used compound was administered intraperitoneally in water solutions 30 min before testing (0,1 ml solution per 10 g of weight). The “open-field” apparatus consisted of cylinder closed from one end, illuminated by four 75 W lamps fixed to the walls 100 cm above the floor. The “open-field” apparatus was 100 cm in diameter and white-painted; the floor was marked with 3 black circles and some radial lines divided the floor into 16 peripheral and 8 central segments. 30 min after injection each animal was placed in the same peripheral square on the floor for 3 min of testing after 1 min exposure in the dark chamber. The following behavior variables were recorded: 1) the number of crossings in the peripheral area (peripheral activity); 2) the number of crossings in the central segments (central activity); 3) the number of rearings (vertical activity); 4) the emotionality was measured as the number of defecations during the test. The sum of all types of locomotor activity was marked as total activity. The t-Student test was used for statistical analysis.

[5] = test system: C57B1/6 mice; assay: open-field test, C57B1/6 mice (active type of emotional-stress reaction); settings: i.p., doses that activate Balb/c mice
From the text: as §1, §2

[6] = 0.5 mg/kg i.p. 30 min before thiopental 70 mg/kg i.p.
[7] = 1.0 mg/kg i.p. 30 min before thiopental 70 mg/kg i.p.
[8] = 5.0 mg/kg i.p. 30 min before thiopental 70 mg/kg i.p.
[9] = 10.0 mg/kg i.p. 30 min before thiopental 70 mg/kg i.p.

Cc1cc2nc(SCCN3CCCCC3)[nH]c2cc1C [XIV, 2-[2-(Piperidino)ethylthio]-5,6-dimethylbenzimidazole]
number of punished lickings (shocks received in 5-min session) ([1]; 1.0 mg/kg i.p.): 31.6 ± 7.6 | number of punished lickings (shocks received in 5-min session) ([1]; 5.0 mg/kg i.p.): 32.9 ± 5.8 | number of punished lickings (shocks received in 5-min session) ([1]; 10.0 mg/kg i.p.): 36.0 ± 9.4 | number of punished lickings (shocks received in 5-min session) ([1]; 20.0 mg/kg i.p.): 42.3 ± 10.8 | time of remaining on the rotarod ([2]; 0.1 mg/kg): 120 + 0 sec | time of remaining on the rotarod ([2]; 1.0 mg/kg): 120 + 0 sec | time of remaining on the rotarod ([2]; 5.0 mg/kg): 120 + 0 sec | time of remaining on the rotarod ([2]; 10.0 mg/kg): 120 + 0 sec | time of remaining on the rotarod ([2]; 20.0 mg/kg): 120 + 0 sec | duration of sleep after sodium thiopental [3, 6]: 91.0 ± 17.8 min | latent time of sleep after sodium thiopental [3, 6]: 2.5 ± 0.5 s | latent time of sleep after sodium thiopental [3, 7]: 2.5 ± 0.2 s | duration of sleep after sodium thiopental [3, 8]: 86.4 ± 13.9 min | latent time of sleep after sodium thiopental [3, 8]: 2.2 ± 0.2 s | duration of sleep after sodium thiopental [3, 9]: 70.6 ± 9.0 min | latent time of sleep after sodium thiopental [3, 9]: 2.9 ± 0.4 s | Central activity (crossings) ([4]; 0.1 mg/kg i.p.): 1.1 ± 0.7 | Number of defecations ([4]; 0.1 mg/kg i.p.): 1.3 ± 0.5 | Peripheral activity (crossings) ([4]; 0.1 mg/kg i.p.): 27.0 ± 6.3 | Total activity ([4]; 0.1 mg/kg i.p.): 28.2 ± 7.1 | Vertical activity (rearings) ([4]; 0.1 mg/kg i.p.): 0.1 ± 0.1 | Central activity (crossings) ([4]; 0.5 mg/kg i.p.): 4.7 ± 2.7 | Number of defecations ([4]; 0.5 mg/kg i.p.): 1.0 ± 0.4 | Peripheral activity (crossings) ([4]; 0.5 mg/kg i.p.): 44.4 ± 9.2 | Total activity ([4]; 0.5 mg/kg i.p.): 49.4 ± 10.7 | Vertical activity (rearings) ([4]; 0.5 mg/kg i.p.): 0.3 ± 0.3 | Central activity (crossings) ([4]; 1.0 mg/kg i.p.): 0.9 ± 0.8 | Number of defecations ([4]; 1.0 mg/kg i.p.): 2.9 ± 0.7 | Peripheral activity (crossings) ([4]; 1.0 mg/kg i.p.): 38.7 ± 4.8 | Total activity ([4]; 1.0 mg/kg i.p.): 39.7 ± 5.7 | Vertical activity (rearings) ([4]; 1.0 mg/kg i.p.): 0.1 ± 0.1 | Central activity (crossings) ([4]; 5.0 mg/kg i.p.): 2.8 ± 1.8 | Number of defecations ([4]; 5.0 mg/kg i.p.): 0.7 ± 0.7 | Peripheral activity (crossings) ([4]; 5.0 mg/kg i.p.): 58.7 ± 7.2 | Total activity ([4]; 5.0 mg/kg i.p.): 61.3 ± 9.0 | Number of defecations ([4]; 10.0 mg/kg i.p.): 2.0 ± 0.9 | Peripheral activity (crossings) ([4]; 10.0 mg/kg i.p.): 67.8 ± 11.1 | Total activity ([4]; 10.0 mg/kg i.p.): 67.8 ± 11.1 | Central activity (crossings) ([4]; 20.0 mg/kg i.p.): 3.4 ± 3.4 | Number of defecations ([4]; 20.0 mg/kg i.p.): 0.1 ± 0.1 | Peripheral activity (crossings) ([4]; 20.0 mg/kg i.p.): 17.3 ± 8.0 | Total activity ([4]; 20.0 mg/kg i.p.): 20.8 ± 9.6 | Vertical activity (rearings) ([4]; 20.0 mg/kg i.p.): 0.1 ± 0.1 | effect on the behavior (locomotor activity) of Balb/c mice in open-field test, in words [4]: able to activate the behavior of Balb/c mice | effect on locomotor activity of C57B1/6 mice in open-field test, in words [5]: without any changes in locomotor activity

C=CCSc1nc2ccc(OCC)cc2[nH]1 [IV, 2-Allylthio-5-ethoxybenzimidazole]
number of punished lickings (shocks received in 5-min session) ([1]; 1.0 mg/kg i.p.): 29.7 ± 5.3 | number of punished lickings (shocks received in 5-min session) ([1]; 5.0 mg/kg i.p.): 31.0 ± 5.6 | number of punished lickings (shocks received in 5-min session) ([1]; 10.0 mg/kg i.p.): 35.8 ± 7.8 | number of punished lickings (shocks received in 5-min session) ([1]; 20.0 mg/kg i.p.): 62.3 ± 19.5 | time of remaining on the rotarod ([2]; 0.1 mg/kg): 120 + 0 sec | time of remaining on the rotarod ([2]; 1.0 mg/kg): 120 + 0 sec | time of remaining on the rotarod ([2]; 5.0 mg/kg): 120 + 0 sec | time of remaining on the rotarod ([2]; 10.0 mg/kg): 120 + 0 sec | time of remaining on the rotarod ([2]; 20.0 mg/kg): 120 + 0 sec | duration of sleep after sodium thiopental [3, 6]: 42.8 ± 13.5 min | latent time of sleep after sodium thiopental [3, 6]: 3.0 ± 0.3 s | duration of sleep after sodium thiopental [3, 7]: 32.5 ± 7.9 min | latent time of sleep after sodium thiopental [3, 7]: 2.7 ± 0.3 s | duration of sleep after sodium thiopental [3, 8]: 50.7 ± 11.0 min | latent time of sleep after sodium thiopental [3, 8]: 2.8 ± 0.3 s | duration of sleep after sodium thiopental [3, 9]: 45.1 ± 10.6 min | latent time of sleep after sodium thiopental [3, 9]: 2.5 ± 0.1 s | Number of defecations ([4]; 0.1 mg/kg i.p.): 0.6 ± 0.5 | Peripheral activity (crossings) ([4]; 0.1 mg/kg i.p.): 12.6 ± 2.6 | Total activity ([4]; 0.1 mg/kg i.p.): 12.6 ± 2.6 | Peripheral activity (crossings) ([4]; 1.0 mg/kg i.p.): 11.4 ± 2.3 | Total activity ([4]; 1.0 mg/kg i.p.): 11.4 ± 2.3 | Number of defecations ([4]; 5.0 mg/kg i.p.): 1.7 ± 0.8 | Peripheral activity (crossings) ([4]; 5.0 mg/kg i.p.): 13.6 ± 3.5 | Total activity ([4]; 5.0 mg/kg i.p.): 13.6 ± 3.5 | Number of defecations ([4]; 10.0 mg/kg i.p.): 3.0 ± 0.7 | Peripheral activity (crossings) ([4]; 10.0 mg/kg i.p.): 9.5 ± 1.9 | Total activity ([4]; 10.0 mg/kg i.p.): 9.5 ± 1.9 | Number of defecations ([4]; 20.0 mg/kg i.p.): 2.5 ± 0.7 | Peripheral activity (crossings) ([4]; 20.0 mg/kg i.p.): 8.9 ± 2.0 | Total activity ([4]; 20.0 mg/kg i.p.): 8.9 ± 2.0 | effect on the behavior (locomotor activity) of Balb/c mice in open-field test, in words [4]: able to activate the behavior of Balb/c mice | effect on locomotor activity of C57B1/6 mice in open-field test, in words [5]: without any changes in locomotor activity
